Experimental data reported in article PMC7920274, “Targeting of CXCR4 by the Naturally Occurring CXCR4 Antagonist EPI-X4 in Waldenström’s Macroglobulinemia” (Cancers, 2021).
“Also recorded” adds a separate entry of the source.

Legend:
[1] = test system: CXCR4 mutant-expressing cells; conditions: cited from earlier work
[2] = test system: mitochondrial cytotoxicity; conditions: cited from earlier work
[3] = test system: CXCR7; design: method as in PMID 25921529; conditions: cited from earlier work
[4] = test system: WM cells; test: Transwell migration of WM cells, general statement; format: cell-based; conditions: 10 nM CXCL12, 2 h, 37 °C; non-specific migration 3,4%; CellTiter-Glo
Procedure: 10 nM CXCL12 was supplemented to the lower chamber. After 2 h incubation at 37 °C, 5% CO2, cells that had migrated to the lower compartment were analyzed using the CellTiter-Glo Luminescent Cell Viability Assay (Promega, Madison, WI, USA) according to the manufacturer’s instructions. Percentage of specific migration was calculated using the following formula: % migration = ((specific migration-unspecific migration)/total cells) × 100. The average of absolute percentage of non-specific migration was very low in some experiments with 3,4% compared to an average of 81% CXCL12 induced migration.

[5] = test system: ERK1 (Tyr204)/ERK2 (Tyr187) phosphorylation, CXCR4 transduced BCWM.1 cells; test: ERK phosphorylation by flow cytometry, CXCR4-transduced BCWM.1 cells; format: cell-based; conditions: wild-type or mutated CXCR4 or empty vector control; Figure S5B
Procedure: Cells (100,000) were seeded in 100 µL starvation medium (RPMI, 1% FCS) and starved for 2 h. 5 µL compound in PBS was added and cells were further incubated for 15 min. Afterwards, 5 µL CXCL12 (100 ng/mL final concentration on cells) was added for 2 min before the reaction was stopped by adding PFA and shifting to 4 °C. After 15 min, medium was removed by centrifugation and cells permeabilized by adding ice cold MetOH for 15 min. Cells were then washed and the first antibody was added (phospho-p44/42 MAPK (Erk1) (Tyr204)/(Erk2) (Tyr187) (D1H6G) mouse mAb (Cell Signaling, Danvers, Massachusetts, USA, #5726) and phospho-Akt (Ser473) (193H12) rabbit mAb (Cell Signaling, #4058)) for 2 h and stained with adequate secondary antibody afterwards. Cells were analyzed by flow cytometry with FACS Cytoflex (Beckman Coulter, Brea, CA, USA). For time-kinetic experiments, fold-stimulation was determined by MFI (stimulated)/MFI (unstimulated) for each time point. For inhibition experiments, MFI from unstimulated cells was subtracted from each point and signal of stimulated cells without inhibitor normalized to 100%.

| Molecule | Abrogation of CXCL12 rescue from ibrutinib-induced apoptosis [1] | Mitochondrial cytotoxicity [2] | Interaction with CXCR7 [3] | CXCL12 induced migration, average [4] [%] | CXCL12 effect on phosphorylation / MAPK signaling [5] |
| --- | --- | --- | --- | --- | --- |
| c1cc(CN2CCCNCCNCCCNCC2)ccc1CN1CCCNCCNCCCNCC1 [AMD3100] | the effect could be abrogated by adding plerixafor | do not exert mitochondrial cytotoxicity, in contrast to AMD3100 | acts as an allosteric agonist of this receptor |  |  |
| CXCL12: chemokine ligand CXCL12 |  |  |  | 81 | increased upon CXCL12 stimulation; also recorded: increases MAPK signaling in cells expressing CXCR4 wildtype constitutively to the same extent as in CXCR4-mutant cells |
